For series [1] the following is noted: species and route not given; cited from earlier work.
The nature of series [2]: Toxicity (LD50/DL50). To be noted: comparison of LD50 values.

One may read the LD50 as the dose expected to kill half of the subjects tested.

Consider `COC(C)(C)CCC[C@H](C)C/C=C/C(C)=C/C(=O)OC(C)C` [S-METHOPRENE], for which the DL50 result in series [1] is “above 10000 mg/kg”. In the case of `CCOc1ccc(C(C)(C)COCc2cccc(Oc3ccccc3)c2)cc1` [ETOFENPROX], the LD50 in series [1] is 42880 mg/kg. In series [2], the “toxicity relative to common salt” value is “about 15 times less” and the “toxicity relative to sugar” value is on record as “two times less”. With common salt, the LD50 in series [1] is listed as 3000 mg/kg.

These data come from patent publication EP2457441A1, “Insecticide composition” (priority 2010, dated 2012).
